# Source: article PMC12808126 (Scientific Reports, 2025)
# What was measured:
# Assay type in all cases: cell-based
# Settings in all cases: to LPS control
# TNF-α = TNF-α suppression assay
# IL-1β = IL-1β suppression assay
# IL-6 = IL-6 suppression assay
structure (smiles),measurement,setting,value
"NS(=O)(=O)c1ccc(-n2nc(C(=O)NN3C(=O)CCC3=O)cc2-c2ccccc2)cc1 [AS-11, N-(2,5-dioxopyrrolidin-1-yl)−5-phenyl-1-(4-sulfamoylphenyl)−1H-pyrazole-3-carboxamide]",TNF-α release percentage inhibition,TNF-α,91%
same,IL-1β release percentage inhibition,IL-1β,75%
same,IL-6 release percentage inhibition,IL-6,61%
